Source: PMC11562788, “Insights into the Hierarchical Assembly of a Chemically Diverse Peptide Hydrogel Derived from Human Semenogelin I” (ACS Nano, 2024)
Several values for one entry are separate records, joined by “and”; a condition that tells them apart may be missing. Identical values can stand only once. Entries after “also recorded” stand apart in the source; their conditions may differ. Residues, ends and D or L forms follow the SMILES beside them.

Tests used:
[1] = SAXS/WAXS of fibrils, elliptical cylinder model fit; assay type: physicochemical; conditions: for Fibril axis ratio / Fibril cross-sectional area / Fibril minor radius (minor semiaxis): SAXS, elliptical cylinder model fit, day 7 at 21 °C; for Fibril axis ratio / Fibril cross-sectional area / Fibril minor radius (minor semiaxis) / Repeated dimension of broad SAXS peak at q = 0.172 Å^–1: pH 8.0; for Repeat distance of sharp SAXS peak at q = 0.305 Å^–1: after 7 days of incubation at 21 °C; for Repeated dimension of broad SAXS peak at q = 0.172 Å^–1: 7 days at 21 °C
Procedure: Small- and wide-angle X-ray scattering (SAXS/WAXS) measurements were performed on a SAXSLabs Ganesha pinhole instrument (JJ X-ray System Aps) with an X-ray microsource (Xenocs) and a two-dimensional 300k Pilatus detector (Dectris Ltd., Switzerland). The wavelength, λ, used for all scattering experiments was 1.54 Å, and samples were measured at three sample-to-detector distances. All samples (200 μL) were loaded into a 1.5 mm diameter quartz capillary (Hilgenberg GmbH, Malsfeld, Germany), and the time-averaged scattering intensities were analyzed using a python code. The scattering intensity was corrected to an absolute scale by calibration against water. Supramolecular dimensions were extracted from SAXS data by using the SasView software and fitting the scattering curves to an elliptical-cylinder model (www.sasview.org).

[2] = FTIR amide I: β-sheet self-assembly; assay type: physicochemical; conditions: D2O, ambient temperature; for Persistence of the β-sheet structure over time by FTIR: 0 h to 1 week or longer, pH as in the words
Procedure: (§1) All samples were prepared in nonstick Eppendorf tubes (Axygen, Inc.). Prior to the final sample preparation (for all FTIR samples and when otherwise stated), the TFA counteranions present in the peptide sample after HPLC purification were exchanged for chloride using the following protocol: lyophilized peptide was dissolved in deionized D2O (1.0 mL). HCl was added at a molar ratio of 13.7:1 HCl:peptide. For the Phe^CN mutants, the sample was divided into two groups and lyophilized. One sample was then redissolved in H2O (to avoid obscuring the O–D stretches in the nitrile region) and the other in D2O (to avoid overlapping of the O-H bending vibrations in the amide I region) to a final concentration of 2.0 mM, unless otherwise specified. All other peptide samples were redissolved in D2O. The exchange of TFA^– to chloride may be verified by a lack of signal at 1672 cm^–1, seen in the IR spectrum for the deuterium-exchanged TFA salt of P3, where the carbonyl signal from TFA is well separated from the amide I carbonyl high frequency stretch at 1684 cm^–1 (Figure S1). On the day of the peptide sample preparation, D2O was placed in an Eppendorf tube, was then used as background when collecting data points (0 h, 48 h, 1 week, etc.), and was assumed to absorb the same amount of H2O over time as the peptide sample prepared on the same day. The concentration of the peptide solutions was verified with the UV–vis absorbance peak at 280 nm using a molar absorptivity of 2560 M^–1 cm^–1 for all sequences (P0–P7). The pH/pD of the samples was then corrected to 8.0 using small volumes of NaOH and HCl (or NaOD and DCl). After attaining the desired pH/pD, samples were incubated at ambient temperature (ca. 22 °C) and followed over 7 days (or as specified) to allow for hydrogelation.
FT IR was performed with a Bruker Vertex 70 spectrometer with a photovoltaic mercury cadmium telluride (MTC) detector. Before the spectral collection, the MCT detector was cooled with liquid nitrogen. A background spectrum (see hydrogel sample preparation above) was collected (6 μL of H2O or D2O), and the collection chamber was purged for 15 min before 6 μL of sample was loaded in between two CaF2 windows and separated by a 50-μm Teflon spacer in a 25-mm diameter demountable liquid cell (Harrick Scientific). After purging again, the IR spectrum was collected with 512 scans, with a resolution of 2 cm^–1, from 900 cm^–1 to 4000 cm^–1 at time t = 0 h, 24 h, 48 h, and 1 week (and sometimes longer) after sample constitution, processed using OPUS spectroscopy software, and plotted with Origin or KaleidaGraph.

[3] = Hydrogelation and gel appearance by visual inspection; assay type: physicochemical; conditions: for Colloidal stability / phase separation of the hydrogel: visual inspection after hydrogel preparation, pH/pD 8.0, 2.0 mM, ambient temperature
Procedure: All FTIR measurements were collected on samples where a trifluoroacetate (TFA^–) to chloride ion exchange was performed to eliminate signals from the TFA^– carbonyl moiety in the amide I spectral region (Figure S1). FTIR spectra were collected for P0–P5 in D2O at six pD values (3.0, 5.0, 7.0, 8.0, 9.0, and 10.0) (Figures S2–S7). FTIR analysis for P6–P8 was performed at a pD of 8.0 (Figures S8–S10). The bulk of FTIR studies were performed at pD 8.0, as the optimum pH range for hydrogelation is 7–9 for both SgI38–48[28] and P0.
as §1

[4] = Oscillatory and flow rheology of hydrogels; assay type: physicochemical; conditions: for Change of storage modulus G′ over one week: 2.0 mM, pH 8.0, 24 h against 1 week at 21 °C; for Recovery of initial G′ within 2 min after strain-induced loss of gel character / Time to complete recovery of the initial G′: after flow curve deformation; for Recovery of initial G′ within 2 min after strain-induced loss of gel character / Time to complete recovery of the initial G′ / Strain above which gel character is lost (G″ > G′) / Strain up to which the gel is linearly viscoelastic / Angular frequency up to which G′ and G″ are frequency-independent: hydrogel after 1 week, 25 °C; for Strain above which gel character is lost (G″ > G′) / Strain up to which the gel is linearly viscoelastic: amplitude sweep 0.01–100% strain; for Slope of viscosity against shear rate (shear thinning): flow curve, hydrogel after 1 week at ambient temperature, measured at 25 °C; for Angular frequency up to which G′ and G″ are frequency-independent: frequency sweep 0.1–100 rad/s
Procedure: Rheology measurements were performed on an Anton Paar Physica MCR 301 instrument using a CP25-1 (diameter of 25 mm, angle of 1°) cone plate. A water trap was installed to prevent sample evaporation, and then, sample, 150–200 μL, was carefully plated on to the rheometer stage with a tipless 1 mL syringe to minimize gel deformation. Measurements were conducted with a […] gap size at a temperature of 25 °C. All rheological measurements were done at a frequency, ω, of 10 rad/s with data collection every 2 s. Samples were left for 1 h at a steady strain sweep, γ, of 0.5% (within the linear viscoelastic regime for all sequences) for the gel samples to recover a steady state fibril network, as observed by a stabilization in the value of G′. Subsequently, frequency sweep (0.1–100 rad/s), strain sweep (γ = 0.01–100%), and flow curve (0.1–50 s^–1) experiments were conducted. A time experiment in the linear viscoelastic regime (10 rad/s, 0.5%) for a 50 min period after the flow curve was used to estimate the recovery time of the hydrogels.

Solubility in water = assay type: physicochemical; conditions: P7 and P8 not tested above 1.0 mM at pH 8
[5] = cited from earlier work
Excerpt: The present study targets a relatively complex 13-residue peptide for which we attempt to uncover the underlying chemical principles behind hydrogelation and correlations between sequence, structure, and bulk mechanical properties. The peptide is derived from the human protein semenogelin I (SgI), which is the main proteinaceous constituent in seminal plasma. SgI is also present in nonreproductive tissues including skeletal muscles, the trachea, and the gastrointestinal tract.[35] We previously reported that a short fragment of SgI forms a pH-responsive gel, similar in properties to the full-l ... || All FTIR measurements were collected on samples where a trifluoroacetate (TFA^–) to chloride ion exchange was performed to eliminate signals from the TFA^– carbonyl moiety in the amide I spectral region (Figure S1). FTIR spectra were collected for P0–P5 in D2O at six pD values (3.0, 5.0, 7.0, 8.0, 9.0, and 10.0) (Figures S2–S7). FTIR analysis for P6–P8 was performed at a pD of 8.0 (Figures S8–S10). The bulk of FTIR studies were performed at pD 8.0, as the optimum pH range for hydrogelati ...

CC[C@H](C)[C@H](NC(=O)[C@H](CO)NC(C)=O)C(=O)N[C@@H](CCC(N)=O)C(=O)N[C@@H](Cc1ccc(O)cc1)C(=O)N[C@H](C(=O)N[C@@H](Cc1ccc(O)cc1)C(=O)N[C@@H](Cc1c[nH]cn1)C(=O)N[C@H](C(=O)N[C@@H](CC(=O)O)C(N)=O)C(C)C)[C@@H](C)O [P4] (Ac-SIQYTYHVD-NH2)
Fibril axis ratio ([1]; 2.0 mM): 2.1 | Fibril cross-sectional area ([1]; 2.0 mM): 59.4 nm^2 | Fibril minor radius (minor semiaxis) ([1]; 2.0 mM): 3.0 nm and 3 nm | Periodic repeat distance from WAXS peak ([1]; WAXS, q = 1.3 Å^–1 (P0–P3) or 1.05 Å^–1 (P4–P6), 2.0 mM, pH 8.0, 21 °C): 6.0 Å | Repeat distance of sharp SAXS peak at q = 0.305 Å^–1 [1]: 2.1 nm | Persistence of the β-sheet structure over time by FTIR [2]: sheet structure is lost within 1 week | Colloidal stability / phase separation of the hydrogel [3]: colloidally unstable and undergoes phase separation

CC[C@H](C)[C@H](NC(=O)[C@H](CO)NC(=O)[C@H](Cc1ccccc1)NC(=O)[C@H](CO)NC(C)=O)C(=O)N[C@@H](CCC(N)=O)C(=O)N[C@@H](Cc1ccc(O)cc1)C(=O)N[C@H](C(=O)N[C@@H](Cc1ccc(O)cc1)C(=O)N[C@@H](Cc1c[nH]cn1)C(=O)N[C@H](C(=O)N[C@@H](CC(=O)O)C(N)=O)C(C)C)[C@@H](C)O [P2] (Ac-SFSIQYTYHVD-NH2)
Repeated dimension of broad SAXS peak at q = 0.172 Å^–1 ([1]; 2.0 mM): 3.7 nm | Fibril axis ratio ([1]; 2.0 mM): 3.5 | Fibril cross-sectional area ([1]; 2.0 mM): 35.6 nm^2 | Fibril minor radius (minor semiaxis) ([1]; 2.0 mM): 1.8 nm | Change of storage modulus G′ over one week [4]: modestly increases | G′ of P2 relative to P3 ([4]; after 1 week of incubation): close to an order of magnitude higher than P3 | Recovery of initial G′ within 2 min after strain-induced loss of gel character [4]: ca. 75% | Time to complete recovery of the initial G′ [4]: 30 min | Strain above which gel character is lost (G″ > G′) [4]: above 10 % strain | Strain up to which the gel is linearly viscoelastic [4]: up to 2 % strain | Slope of viscosity against shear rate (shear thinning) [4]: ca. −1.1 | Angular frequency up to which G′ and G″ are frequency-independent [4]: up to 20 rad/s

CC[C@H](C)[C@H](NC(=O)[C@H](CO)NC(=O)[C@H](Cc1ccccc1)NC(C)=O)C(=O)N[C@@H](CCC(N)=O)C(=O)N[C@@H](Cc1ccc(O)cc1)C(=O)N[C@H](C(=O)N[C@@H](Cc1ccc(O)cc1)C(=O)N[C@@H](Cc1c[nH]cn1)C(=O)N[C@H](C(=O)N[C@@H](CC(=O)O)C(N)=O)C(C)C)[C@@H](C)O [P3] (Ac-FSIQYTYHVD-NH2)
Repeated dimension of broad SAXS peak at q = 0.172 Å^–1 ([1]; 2.0 mM): 3.7 nm | Fibril axis ratio ([1]; 2.0 mM): 3.2 | Fibril cross-sectional area ([1]; 2.0 mM): 32.6 nm^2 | Fibril minor radius (minor semiaxis) ([1]; 2.0 mM): 1.8 nm | Change of storage modulus G′ over one week [4]: significantly increases | Recovery of initial G′ within 2 min after strain-induced loss of gel character [4]: ca. 60% | Time to complete recovery of the initial G′ [4]: 45 min | Strain above which gel character is lost (G″ > G′) [4]: > 60 % strain | Strain up to which the gel is linearly viscoelastic [4]: ≤ 10 % strain | Slope of viscosity against shear rate (shear thinning) [4]: ca. −1.1 | Angular frequency up to which G′ and G″ are frequency-independent [4]: up to 20 rad/s

CC[C@H](C)[C@H](NC(=O)[C@H](CO)NC(=O)[C@H](Cc1ccccc1)NC(=O)[C@H](CO)NC(=O)CNC(C)=O)C(=O)N[C@@H](CCC(N)=O)C(=O)N[C@@H](Cc1ccc(O)cc1)C(=O)N[C@H](C(=O)N[C@@H](Cc1ccc(O)cc1)C(=O)N[C@@H](Cc1c[nH]cn1)C(=O)N[C@H](C(N)=O)C(C)C)[C@@H](C)O [SgI38–48, AcNH–GSFSIQYTYHV–CONH2] (Ac-GSFSIQYTYHV-NH2)
Solubility in water (in words) (Solubility in water): limited solubility in water | Optimum pH range for hydrogelation [5]: 7–9 | Concentration at which the peptide self-assembles into a hydrogel network ([5]; physiological conditions): 0.5 % w/v

CC[C@H](C)[C@H](NC(=O)[C@H](CO)NC(=O)[C@H](Cc1ccccc1)NC(=O)[C@H](CO)NC(=O)CNC(C)=O)C(=O)N[C@@H](CCC(N)=O)C(=O)N[C@@H](Cc1ccc(O)cc1)C(=O)N[C@H](C(=O)N[C@@H](Cc1ccc(O)cc1)C(=O)N[C@@H](Cc1c[nH]cn1)C(=O)N[C@H](C(=O)N[C@@H](CC(=O)O)C(N)=O)C(C)C)[C@@H](C)O [P1] (Ac-GSFSIQYTYHVD-NH2)
Fibril axis ratio ([1]; 2.0 mM): 2.5 | Fibril cross-sectional area ([1]; 2.0 mM): 17.7 nm^2 | Fibril minor radius (minor semiaxis) ([1]; 2.0 mM): 1.5 nm | Persistence of the β-sheet structure over time by FTIR [2]: is lost over time | Gel robustness as noticed in handling ([3]; pD 8.0 hydrogels): less stable gel than P0, P2 and P3

CC(=O)N[C@H](C(=O)N[C@@H](Cc1ccc(O)cc1)C(=O)N[C@@H](Cc1c[nH]cn1)C(=O)N[C@H](C(=O)N[C@@H](CC(=O)O)C(N)=O)C(C)C)[C@@H](C)O [P8] (Ac-TYHVD-NH2)
Solubility in water (in words) (Solubility in water): low solubility | β-Sheet secondary structure (self-assembly) by FTIR amide I ([2]; pD 8.0, 2.0 mM (P7, P8 and F40FCN 1.0 mM)): no sign of a β-sheet secondary structure; also recorded: unstructured

CC(=O)N[C@@H](CCC(N)=O)C(=O)N[C@@H](Cc1ccc(O)cc1)C(=O)N[C@H](C(=O)N[C@@H](Cc1ccc(O)cc1)C(=O)N[C@@H](Cc1c[nH]cn1)C(=O)N[C@H](C(=O)N[C@@H](CC(=O)O)C(N)=O)C(C)C)[C@@H](C)O [P6] (Ac-QYTYHVD-NH2)
Fibril axis ratio ([1]; 2.0 mM): 1.9 | Fibril cross-sectional area ([1]; 2.0 mM): 57.4 nm^2 | Fibril minor radius (minor semiaxis) ([1]; 2.0 mM): 3.1 nm | Repeat distance of sharp SAXS peak at q = 0.305 Å^–1 [1]: 2.1 nm | Colloidal stability / phase separation of the hydrogel [3]: colloidally unstable and undergoes phase separation | Hydrogel formation ([3]; visual inspection, peptide in water/D2O, pH/pD 8.0, 2.0 mM (P7 1.0 mM), ambient temperature ca. 22 °C, up to 7 days): forms a hydrogel
